Measured values reported in US11702427B2 (priority 2018, dated 2023).

Tested on: HBsAg
Assay: HBsAg assay: inhibition of HBsAg in HepG2.2.15 cells (CLIA immunoassay of supernatant)
Type: cell-based, hepatitis B virus (HBV)
Settings: Hepatitis B virus, HepG2.2.15, 144 h, read-out: sAg EC50, HepG2.2.15 cells; supernatant collected at day 6 after exposure; HBsAg chemiluminescence immunoassay
Protocol: Inhibition of HBsAg was determined in HepG2.2.15 cells. Cells were maintained in culture medium containing 10% fetal calf serum, […], Glutamine, penicillin/streptomycin. Cells were seeded in 96-well collagen-coated plate at a density of 30,000 cells/well. Serially diluted compounds were added to cells next day at the final DMSO concentration of 0.5%. Cells were incubated with compounds for 2-3 days, after which medium was removed. Fresh medium containing compounds was added to cells for additional 3-4 days. At day 6 after exposure of compounds, supernatant was collected, the HBsAg immunoassay (microplate-based chemiluminescence immunoassay kits, CLIA, Autobio Diagnosics Co., Zhengzhou, China, Catalog #CL0310-2) was used to determine the level of HBsAg according to manufactory instruction. Dose-response curves were generated and the EC50 value (effective concentrations that achieved 50% inhibitory effect) were determined using XLfit software. In addition, cells can be seeded at a density of 5,000 cells/well for determination of cell viability in the presence and absence of compounds by using CellTiter-Glo reagent (Promega). Tables 1-3 show EC50 values obtained by the HBsAg assay for selected compounds.

| SMILES | EC50 |
| --- | --- |
| COCCCOc1cc2c(cc1OC)-c1[nH]c(=O)c(C(=O)O)c(F)c1C(C(C)C)C2 (stereo not drawn) [Example 17, 4-Fluoro-5-isopropyl-9-methoxy-8-(3-methoxypropoxy)-2-oxo-1,2,5,6-tetrahydrobenzo[h]quinoline-3-carboxylic acid] | 0.64 µM |
| COCCCOc1cc2c(cc1OC)-c1c(c(O)c(C(=O)O)c(=O)n1Cc1ccccc1)C(C(C)C)C2 (stereo not drawn) [Example 18, 1-Benzyl-4-hydroxy-5-isopropyl-9-methoxy-8-(3-methoxypropoxy)-2-oxo-1,2,5,6-tetrahydrobenzo[h]quinoline-3-carboxylic acid] | 15 µM |
| COCCCOc1cc2c(cc1OC)-c1nc(Cl)c(C(=O)O)c(O)c1C(C(C)C)C2 (stereo not drawn) [Example 19, 2-Chloro-4-hydroxy-5-isopropyl-9-methoxy-8-(3-methoxypropoxy)-5,6-dihydrobenzo[h]quinoline-3-carboxylicacid] | 8 µM |
| COCCCOc1cc2c(cc1OC)-c1[nH]c(=O)c(C(=O)O)c(Cl)c1C(C(C)C)C2 (stereo not drawn) [Example 20, 4-Chloro-5-isopropyl-9-methoxy-8-(3-methoxypropoxy)-2-oxo-1,2,5,6-tetrahydrobenzo[h]quinoline-3-carboxylic acid] | 3.8 µM |
| COCCCOc1cc2c(cc1OC)-c1nc(Cl)c(C(=O)O)c(Cl)c1C(C(C)C)C2 (stereo not drawn) [Example 21, 2,4-Dichloro-5-isopropyl-9-methoxy-8-(3-methoxypropoxy)-5,6-dihydrobenzo[h]quinoline-3-carboxylic acid] | 0.15 µM |
| COCCCOc1cc2c(cc1OC)-c1[nH]c(=O)cc(O)c1C(C(C)C)C2 (stereo not drawn) [Example 22, 4-Hydroxy-5-isopropyl-9-methoxy-8-(3-methoxypropoxy)-5,6-dihydrobenzo[h]quinolin-2(1H)-one] | 0.34 µM |
| COCCCOc1cc2c(cc1OC)-c1nc(Cl)c(C(=O)O)cc1C(C(C)C)C2 (stereo not drawn) [Example 23, 2-Chloro-5-isopropyl-9-methoxy-8-(3-methoxypropoxy)-5,6-dihydrobenzo[h]quinoline-3-carboxylic acid] | 0.24 µM |
| COCCCOc1cc2c(nc1Cl)-c1c(cc(C(=O)O)c(=O)n1C)C(C(C)C)C2 (stereo not drawn) [Example 25, 9-Chloro-5-isopropyl-8-(3-methoxypropoxy)-1-methyl-2-oxo-1,2,5,6-tetrahydro-1,10-phenanthroline-3-carboxylic acid] | 0.094 µM |
| COCCCOc1cc2c(nc1Cl)-c1[nH]c(=O)c(C(=O)O)c(O)c1C(C(C)C)C2 (stereo not drawn) [Example 26, 9-Chloro-4-hydroxy-5-isopropyl-8-(3-methoxypropoxy)-2-oxo-1,2,5,6-tetrahydro-1,10-phenanthroline-3-carboxylic acid] | 0.003 µM |
| COCCCOc1cc2c(nc1Cl)-c1[nH]c(=O)c(C(=O)O)c(O)c1C(C(C)(C)C)C2 (stereo not drawn) [Example 29, 5-(tert-Butyl)-9-chloro-4-hydroxy-8-(3-methoxypropoxy)-2-oxo-1,2,5,6-tetrahydro-1,10-phenanthroline-3-carboxylicacid] | 0.001 µM |
| COCCCOc1cc2c(cc1OC)-c1[nH]c(=O)c(C(=O)O)c(O)c1C(C)(C(C)C)C2 (stereo not drawn) [Example 30, 4-Hydroxy-5-isopropyl-9-methoxy-8-(3-methoxypropoxy)-5-methyl-2-oxo-1,2,5,6-tetrahydrobenzo[h]quinoline-3-carboxylic acid] | 0.058 µM |
| COCCCOc1cc2c(nc1OC)-c1[nH]c(=O)c(C(=O)O)c(O)c1C(C(C)C)C2 (stereo not drawn) [Example 33, 4-Hydroxy-5-isopropyl-9-methoxy-8-(3-methoxypropoxy)-2-oxo-1,2,5,6-tetrahydro-1,10-phenanthroline-3-carboxylic acid] | 0.004 µM |
| COCCCOc1cc2c(nc1OC)-c1[nH]c(=O)c(C(=O)O)c(O)c1C(C(C)(C)C)C2 (stereo not drawn) [Example 36, 5-(tert-Butyl)-4-hydroxy-9-methoxy-8-(3-methoxypropoxy)-2-oxo-1,2,5,6-tetrahydro-1,10-phenanthroline-3-carboxylicacid] | 0.001 µM |
| CCOc1nc2c(cc1OCCCOC)CC(C(C)C)c1c-2[nH]c(=O)c(C(=O)O)c1O (stereo not drawn) [Example 39, 9-Ethoxy-4-hydroxy-5-isopropyl-8-(3-methoxypropoxy)-2-oxo-1,2,5,6-tetrahydro-1,10-phenanthroline-3-carboxylicacid] | 0.002 µM |
| COCCCOc1cc2c(nc1OCC(F)F)-c1[nH]c(=O)c(C(=O)O)c(O)c1C(C(C)C)C2 (stereo not drawn) [Example 42, 9-(2,2-Difluoroethoxy)-4-hydroxy-5-isopropyl-8-(3-methoxypropoxy)-2-oxo-1,2,5,6-tetrahydro-10-phenanthroline-3-carboxylic acid] | 0.012 µM |
| COCCCOc1cc2c(nc1OC)-c1[nH]c(=O)c(C(=O)O)cc1C(C(C)C)C2 (stereo not drawn) [Example 43, 5-Isopropyl-9-methoxy-8-(3-methoxypropoxy)-2-oxo-1,2,5,6-tetrahydro-1,10-phenanthroline-3-carboxylic acid] | 0.003 µM |
| COCCCOc1cc2c(nc1OC)-c1[nH]c(=O)c(C(=O)O)cc1C(C(C)(C)C)C2 (stereo not drawn) [Example 46, 5-(tert-Butyl)-9-methoxy-8-(3-methoxypropoxy)-2-oxo-1,2,5,6-tetrahydro-1,10-phenanthroline-3-carboxylicacid] | 0.001 µM |
| COCCCOc1cc2c(nc1C1CC1)-c1[nH]c(=O)c(C(=O)O)c(O)c1C(C(C)C)C2 (stereo not drawn) [Example 49, 9-Cyclopropyl-4-hydroxy-5-isopropyl-8-(3-methoxypropoxy)-2-oxo-1,2,5,6-tetrahydro-1,10-phenanthroline-3-carboxylicacid] | 0.001 µM |
| CCCc1nc2c(cc1OCCCOC)CC(C(C)C)c1c-2[nH]c(=O)c(C(=O)O)c1O (stereo not drawn) [Example 50, 4-Hydroxy-5-isopropyl-8-(3-methoxypropoxy)-2-oxo-9-propyl-1,2,5,6-tetrahydro-1,10-phenanthroline-3-carboxylic acid] | 0.002 µM |
| COCCCOc1cc2c(nc1NCCOC)-c1[nH]c(=O)c(C(=O)O)c(O)c1C(C(C)C)C2 (stereo not drawn) [Example 51, 4-Hydroxy-5-isopropyl-9-((2-methoxyethyl)amino)-8-(3-methoxypropoxy)-2-oxo-1,2,5,6-tetrahydro-1,10-phenanthroline-3-carboxylicacid] | 10 µM |
| COCCCOc1cc2c(nc1NCCOC)-c1[nH]c(=O)c(C(=O)NCCOC)c(O)c1C(C(C)C)C2 (stereo not drawn) [Example 52, 4-Hydroxy-5-isopropyl-N-(2-methoxyethyl)-9-((2-methoxyethyl)amino)-8-(3-methoxypropoxy)-2-oxo-1,2,5,6-tetrahydro-1,10-phenanthroline-3-carboxamide] | 13 µM |
| CNc1nc2c(cc1OCCCOC)CC(C(C)C)c1c-2[nH]c(=O)c(C(=O)O)c1O (stereo not drawn) [Example 53, 4-Hydroxy-5-isopropyl-8-(3-methoxypropoxy)-9-(methylamino)-2-oxo-1,2,5,6-tetrahydro-1,10-phenanthroline-3-carboxylic acid] | 0.015 µM |
| COCCCOc1cc2c(nc1N(C)C)-c1[nH]c(=O)c(C(=O)O)c(O)c1C(C(C)C)C2 (stereo not drawn) [Example 54, 9-(Dimethylamino)-4-hydroxy-5-isopropyl-8-(3-methoxypropoxy)-2-oxo-1,2,5,6-tetrahydro-1,10-phenanthroline-3-carboxylicacid] | 0.01 µM |
| CNc1nc2c(cc1OCCCOC)CC(C(C)C)c1cc(C(=O)O)c(=O)[nH]c1-2 (stereo not drawn) [Example 55, 5-Isopropyl-8-(3-methoxypropoxy)-9-(methylamino)-2-oxo-1,2,5,6-tetrahydro-1,10-phenanthroline-3-carboxylicacid] | 0.002 µM |
